Values quoted from earlier work as cited in US6790965B1, “Combinatorial dihydrobenzopyran library” (Pharmacopeia Drug Discovery, Inc., priority 1994, dated 2004).

Molecular target: bovine carbonic anhydrase (Bos taurus, UniProt P00921)
Conditions: relatively weak inhibitor, displaced by increased dansylamide concentration

Sequence of bovine carbonic anhydrase (P00921 whole entry): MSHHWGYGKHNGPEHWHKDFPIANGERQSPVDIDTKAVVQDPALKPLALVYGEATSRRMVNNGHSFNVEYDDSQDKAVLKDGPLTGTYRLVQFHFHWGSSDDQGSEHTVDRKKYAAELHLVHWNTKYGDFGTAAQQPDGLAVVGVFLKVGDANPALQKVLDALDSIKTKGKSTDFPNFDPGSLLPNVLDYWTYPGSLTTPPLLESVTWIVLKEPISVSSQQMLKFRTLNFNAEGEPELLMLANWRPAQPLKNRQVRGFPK

With `NS(=O)(=O)c1cc2c(cc1Cl)N=CNS2(=O)=O` [chlorothiazide] as the molecule, how does the Ki read?
Its Ki is ~75 nM.
